Test results taken from PubChem BioAssay AID248 (DTP/NCI, 2004).
Several values for one entry are separate records, joined by “and”; a condition that tells them apart may be missing. Equal values may be shown once. Toxic doses and inconclusive results are not listed. Rule as the data show it: active = T/C of 150% or more; inactive = T/C below 125%.

Test system: L1210 leukemia ip in BDF1 mice, survival T/C
Test: NCI In Vivo Anticancer Drug Screen. Data for tumor model L1210 Leukemia (intraperitoneal) in B6D2F1 (BDF1) mice
Settings: endpoint: mean survival time, higher = longer survival
Procedure, shortened: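 Transplanted-tumor mice were given test agent; controls received vehicle only. Survival readings from the two groups were divided (treated over control).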

[1] = dose: 12.5 mg/kg/injection, schedule: Q01DX009 (ip), vehicle: carboxymethylcellulose (CMC)
[2] = dose: 25.0 mg/kg/injection, schedule: Q01DX009 (ip), vehicle: carboxymethylcellulose (CMC)

Measured: T/C

COc1cc(-c2ccc(Nc3ccccc3C(=O)O)c(OC)c2)ccc1Nc1ccccc1C(=O)O
inactive: dose: 6.0 mg/kg/injection, schedule: Q01DX006 (iv), vehicle: carboxymethylcellulose (CMC) 111 % of control | dose: 12.0 mg/kg/injection, schedule: Q01DX006 (iv), vehicle: carboxymethylcellulose (CMC) 106 % of control | dose: 13.0 mg/kg/injection, schedule: Q01DX Z (ip), vehicle: saline 122 % of control | dose: 20.0 mg/kg/injection, schedule: Q01DX Z (ip), vehicle: saline 114 % of control | dose: 25.0 mg/kg/injection, schedule: Q01DX006 (iv), vehicle: carboxymethylcellulose (CMC) 107 % of control | dose: 25.0 mg/kg/injection, schedule: Q01DX Z (ip), vehicle: carboxymethylcellulose (CMC) 103 % of control | dose: 29.0 mg/kg/injection, schedule: Q01DX Z (ip), vehicle: saline 116 % of control | dose: 37.5 mg/kg/injection, schedule: Q01DX006 (iv), vehicle: carboxymethylcellulose (CMC) 108 % of control | dose: 44.0 mg/kg/injection, schedule: Q01DX Z (ip), vehicle: carboxymethylcellulose (CMC) 104 % of control and 112 % of control | dose: 44.0 mg/kg/injection, schedule: Q01DX Z (ip), vehicle: methylcellulose (MC) 100 % of control | dose: 44.0 mg/kg/injection, schedule: Q01DX Z (ip), vehicle: saline 117 % of control and 122 % of control | dose: 45.0 mg/kg/injection, schedule: Q01DX Z (ip), vehicle: carboxymethylcellulose (CMC) 104 % of control | dose: 50.0 mg/kg/injection, schedule: Q01DX006 (iv), vehicle: carboxymethylcellulose (CMC) 106 % of control | dose: 50.0 mg/kg/injection, schedule: Q01DX015 (ip), vehicle: saline 98 % of control | dose: 50.0 mg/kg/injection, schedule: Q01DX Z (ip), vehicle: carboxymethylcellulose (CMC) 97 % of control and 101 % of control | dose: 64.0 mg/kg/injection, schedule: Q01DX Z (ip), vehicle: carboxymethylcellulose (CMC) 102 % of control | dose: 66.0 mg/kg/injection, schedule: Q01DX Z (ip), vehicle: carboxymethylcellulose (CMC) 110 % of control | dose: 66.0 mg/kg/injection, schedule: Q01DX Z (ip), vehicle: methylcellulose (MC) 105 % of control | dose: 66.0 mg/kg/injection, schedule: Q01DX Z (ip), vehicle: saline 109 % of control and 114 % of control | dose: 98.0 mg/kg/injection, schedule: Q01DX Z (ip), vehicle: methylcellulose (MC) 98 % of control | dose: 98.0 mg/kg/injection, schedule: Q01DX Z (ip), vehicle: saline 97 % of control | dose: 99.0 mg/kg/injection, schedule: Q01DX Z (ip), vehicle: carboxymethylcellulose (CMC) 100 % of control | dose: 100.0 mg/kg/injection, schedule: Q01DX015 (ip), vehicle: saline 96 % of control | dose: 100.0 mg/kg/injection, schedule: Q01DX Z (ip), vehicle: saline 119 % of control | dose: 147.0 mg/kg/injection, schedule: Q01DX Z (ip), vehicle: methylcellulose (MC) 110 % of control | dose: 147.0 mg/kg/injection, schedule: Q01DX Z (ip), vehicle: saline 100 % of control | dose: 150.0 mg/kg/injection, schedule: Q01DX Z (ip), vehicle: carboxymethylcellulose (CMC) 95 % of control | dose: 200.0 mg/kg/injection, schedule: Q01DX015 (ip), vehicle: saline 101 % of control | dose: 200.0 mg/kg/injection, schedule: Q01DX Z (ip), vehicle: carboxymethylcellulose (CMC) 103 % of control and 106 % of control | dose: 200.0 mg/kg/injection, schedule: Q01DX Z (oral), vehicle: carboxymethylcellulose (CMC) 103 % of control | dose: 220.0 mg/kg/injection, schedule: Q01DX Z (ip), vehicle: methylcellulose (MC) 98 % of control | dose: 220.0 mg/kg/injection, schedule: Q01DX Z (ip), vehicle: saline 108 % of control | dose: 334.0 mg/kg/injection, schedule: Q01DX Z (ip), vehicle: saline 120 % of control | dose: 400.0 mg/kg/injection, schedule: Q01DX015 (ip), vehicle: saline 96 % of control | dose: 400.0 mg/kg/injection, schedule: Q01DX Z (oral), vehicle: carboxymethylcellulose (CMC) 103 % of control | dose: 800.0 mg/kg/injection, schedule: Q01DX Z (oral), vehicle: carboxymethylcellulose (CMC) 95 % of control | dose: 1600.0 mg/kg/injection, schedule: Q01DX Z (oral), vehicle: carboxymethylcellulose (CMC) 111 % of control

O=C(CCl)Nc1cccc(S(=O)(=O)F)c1
inactive: [1] 93 % of control | [2] 88 % of control | dose: 50.0 mg/kg/injection, schedule: Q01DX009 (ip), vehicle: carboxymethylcellulose (CMC) 87 % of control | dose: 100.0 mg/kg/injection, schedule: Q04DX003 (ip), vehicle: carboxymethylcellulose (CMC) 103 % of control

NC(N)=N/N=C/c1cccc(Cl)c1
inactive: dose: 3.75 mg/kg/injection, schedule: Q01DX Z (ip), vehicle: saline 92 % of control | dose: 7.5 mg/kg/injection, schedule: Q01DX Z (ip), vehicle: saline 94 % of control | dose: 15.0 mg/kg/injection, schedule: Q01DX Z (ip), vehicle: saline 94 % of control | dose: 15.0 mg/kg/injection, schedule: Q01DX Z (oral), vehicle: saline 98 % of control | dose: 30.0 mg/kg/injection, schedule: Q01DX Z (ip), vehicle: saline 100 % of control | dose: 30.0 mg/kg/injection, schedule: Q01DX Z (oral), vehicle: saline 98 % of control | dose: 60.0 mg/kg/injection, schedule: Q01DX Z (oral), vehicle: saline 98 % of control | dose: 120.0 mg/kg/injection, schedule: Q01DX Z (oral), vehicle: saline 102 % of control

CC/C=C(\C)C1(CC)C(=O)N=C(N)NC1=O (stereo not drawn)
inactive: dose: 150.0 mg/kg/injection, schedule: Q01DX001 (ip), vehicle: saline 105 % of control

Cc1cc(-c2ccccc2)c2ccccc2c1N(CC(=O)O)S(=O)(=O)c1ccccc1
inactive: dose: 100.0 mg/kg/injection, schedule: Q01DX009 (ip), vehicle: saline with Tween-80 105 % of control | dose: 100.0 mg/kg/injection, schedule: Q04DX003 (ip), vehicle: saline 98 % of control | dose: 200.0 mg/kg/injection, schedule: Q01DX009 (ip), vehicle: saline with Tween-80 93 % of control | dose: 200.0 mg/kg/injection, schedule: Q04DX003 (ip), vehicle: saline 104 % of control | dose: 400.0 mg/kg/injection, schedule: Q04DX003 (ip), vehicle: saline 102 % of control

Cc1ccc(Cl)c(NC(=O)COc2ccc(Cl)cc2)c1
inactive: dose: 100.0 mg/kg/injection, schedule: Q01DX009 (ip), vehicle: Klucel (hydroxypropylcellulose) (HPC) 93 % of control | dose: 200.0 mg/kg/injection, schedule: Q01DX009 (ip), vehicle: Klucel (hydroxypropylcellulose) (HPC) 94 % of control | dose: 400.0 mg/kg/injection, schedule: Q01DX009 (ip), vehicle: Klucel (hydroxypropylcellulose) (HPC) 94 % of control

NC(=S)N/N=C/c1nc2ccccc2[nH]c1=O
inactive: dose: 26.0 mg/kg/injection, schedule: Q03HX032 (ip), vehicle: saline with Tween-80 90 % of control and 91 % of control | dose: 40.0 mg/kg/injection, schedule: Q03HX032 (ip), vehicle: saline with Tween-80 95 % of control and 87 % of control | dose: 60.0 mg/kg/injection, schedule: Q03HX032 (ip), vehicle: saline with Tween-80 88 % of control and 90 % of control | dose: 90.0 mg/kg/injection, schedule: Q03HX032 (ip), vehicle: saline with Tween-80 94 % of control and 89 % of control | dose: 135.0 mg/kg/injection, schedule: Q03HX032 (ip), vehicle: saline with Tween-80 89 % of control

O=C(NCCC[P+](c1ccccc1)(c1ccccc1)c1ccccc1)OCc1ccccc1
inactive: [1] 101 % of control and 120 % of control | dose: 12.5 mg/kg/injection, schedule: Q04DX002 (ip), vehicle: carboxymethylcellulose (CMC) 103 % of control | dose: 25.0 mg/kg/injection, schedule: Q01DX001 (ip), vehicle: carboxymethylcellulose (CMC) 87 % of control and 91 % of control | [2] 103 % of control | dose: 25.0 mg/kg/injection, schedule: Q04DX002 (ip), vehicle: carboxymethylcellulose (CMC) 100 % of control and 91 % of control | dose: 25.0 mg/kg/injection, schedule: Q04DX003 (ip), vehicle: carboxymethylcellulose (CMC) 97 % of control and 98 % of control | dose: 50.0 mg/kg/injection, schedule: Q01DX001 (ip), vehicle: carboxymethylcellulose (CMC) 95 % of control and 104 % of control | dose: 50.0 mg/kg/injection, schedule: Q04DX002 (ip), vehicle: carboxymethylcellulose (CMC) 100 % of control | dose: 50.0 mg/kg/injection, schedule: Q04DX003 (ip), vehicle: carboxymethylcellulose (CMC) 97 % of control and 100 % of control

CC(=O)COc1ccc(C(=O)Cl)cc1
inactive: dose: 100.0 mg/kg/injection, schedule: Q04DX003 (ip), vehicle: Klucel (hydroxypropylcellulose) (HPC) 95 % of control | dose: 200.0 mg/kg/injection, schedule: Q04DX003 (ip), vehicle: Klucel (hydroxypropylcellulose) (HPC) 102 % of control | dose: 300.0 mg/kg/injection, schedule: Q04DX003 (ip), vehicle: Klucel (hydroxypropylcellulose) (HPC) 106 % of control

CC(C)C(CN)(CCCCN1CCOCC1)c1cccc2ccccc12 (stereo not drawn)
inactive: dose: 100.0 mg/kg/injection, schedule: Q04DX003 (ip), vehicle: saline with Tween-80 100 % of control | dose: 200.0 mg/kg/injection, schedule: Q04DX003 (ip), vehicle: saline with Tween-80 95 % of control | dose: 400.0 mg/kg/injection, schedule: Q04DX003 (ip), vehicle: saline with Tween-80 95 % of control
